Article PMC11487561 (ACS Chemical Neuroscience, 2024)
Read-outs that look alike come from different tables or passages of the source.

Experiments:
[1] = Intrinsic clearance in human liver microsomes; type: in vitro ADME; conditions: pH 7.4; human liver microsomes
Experimental: (§1) Intrinsic Clearance in Rat and Human Liver Microsomes
(§2) The in vitro intrinsic clearance (CL int) was investigated in commercially obtained hepatic microsomes from rat and human donors using the substrate depletion (i.e., loss-of-parent vs. time, or t 1/2 method) approach with analyte detection via liquid chromatography-tandem mass spectrometry (LC-MS/MS). For each species, mean %parent remaining values at each time point were calculated from replicates raw data (analyte:IS peak area ratios) and used to determine in vitro t 1/2 and CLint.
(§3) Experiments were carried out using a robot-assisted (TECAN model Evo 200). Compound was incubated (1 µM final concentration) in buffer (100 mM potassium phosphate pH 7.4 with 3 mM MgCl2) containing hepatic microsomes (0.5 mg/mL final concentration) from multiple species, discretely, at 37 °C under constant orbital shaking. After 5 minutes (pre-incubation), reactions were initiated by addition of nicotinamide adenine dinucleotide phosphate (NADPH, 1 mM final concentration). At selected time intervals (0, 3, 7, 15, 25, and 45 minutes) post-addition of NADPH, aliquots (50 µL) were taken and placed into a 96-shallow-well plate containing ice cold acetonitrile (150 µL) with carbamazepine (IS, 50 nM). The plates were then centrifuged (3000 rcf at 4 °C) for 10 minutes. The supernatants were transferred to a new 96-shallow-well daughter plate and diluted (1:1 v/v) with water (Milli-Q filtered). The plates were then sealed in preparation for LC-MS/MS analysis (see below).
(§4) Raw LC-MS/MS peak area data generated from the assay samples were used to construct natural log-transformed %parent remaining vs. time plots (using t = 0 minute post-NADPH addition sample data as starting point set to 100%). In vitro compound half-life (t 1/2) values were obtained using the following […]
(§5) k is the slope from linear regression analysis of the natural log-transformed data (using means from Where all replicates at each time point). Resulting t 1/2 values were then used to calculate hepatic CLint values according to the following equation and with the use of species-specific scale-up factors for liver weight (grams) per total body weight (kg): […]
(§6) CLint = in vitro t1/2 x 0.5 mg microsomes x 1 gram liver x kg body wt aScale-up factors used are 45 (rat) and 20 (human).2
(§7) Predicted hepatic clearance (CLhep) was calculated using the following equation: […]
(§8) Qh represents hepatic blood flow (mL/min/kg): 21 for human, 70 for rat, and 90 for mouse.
(§9) Prepared samples were injected (10 µL each) onto an AB Sciex Triple Quad 4500 mass spectrometer system with an Agilent 1260 Infinity II pump and autosampler. Mass spectrometer conditions are described in Table S1. Quantitation of compounds was performed via AB Sciex Multiquant software using the raw analyte:IS peak area ratios. The typical detection range was 0.5 ng/mL to ≥ 5,000 ng/mL utilizing a quadratic equation regression with 1/x2 weighting. […]
(§10) Table S1. LC-MS/MS Conditions*
(§11) Mobile phase A 0.5% Formic Acid in Water
(§12) Mobile phase B 0.5% Formic Acid in Acetonitrile
(§13) Gradient Time % Mobile Phase B

[2] = Binding in plasma from rat (equilibrium dialysis); type: in vitro ADME; conditions: read-out: rat fu,plasma
Experimental: (§14) Binding in plasma from rat and human.
(§15) Determination of compounds’ fraction unbound (f u) in plasma from rat and human was conducted in vitro via equilibrium dialysis using HTDialysis membrane plates. Dialysis membranes (four paired strips per HTD assay) were hydrated as described by the manufacturer and inserted into the HTD plate, which was assembled and prepared for sample addition by the dispensing of blank buffer (DPBS, 100 µL/well) into the ‘top half’ of each membrane-split well. Each compound was diluted into plasma from each species (5 µM final concentration), which was aliquoted in triplicate to the ‘bottom half’ of the prepared HTD plate wells. The HTD plate was sealed and incubated for 6 hours at 37 °C. Following incubation, each well (both top and bottom halves) were transferred (20 µL) to the corresponding wells of a 96-shallow-well (V-bottom) plate. The daughter plates were then matrix-matched (buffer side wells received equal volume of plasma, and plasma side wells received equal volume of buffer), and extraction solution (120 µL; acetonitrile containing 50 nM carbamazepine as IS) was added to all wells of both daughter plates to precipitate protein and extract test article. The plates were then sealed and centrifuged (3500 rcf) for 10 minutes at ambient temperature. Supernatant (60 µL) from each well of the daughter plates was then transferred to the corresponding wells of new daughter plates (96-shallow-well, V bottom) containing water (Milli-Q, 60 µL/well), and the plates were sealed in preparation for LC-MS/MS analysis (see below). fu was calculated as (analyte to IS MS peak area ratio from Trans-buffer side) / (analyte to IS MS peak area ratio from Cis-plasma side). Mean values for each species were calculated from 3 replicates.

[3] = Binding in brain homogenate from rat (equilibrium dialysis); type: in vitro ADME; conditions: for rat fbrain: fraction unbound, equilibrium dialysis, rat brain homogenates; for fraction unbound at 6 h, 1 µM: rat, brain homogenate, in %, read-out: fu,brain (rat brain homogenate)
Experimental: Binding in brain homogenate from rat.
Determination of fraction unbound (f u) in brain homogenate from rat was conducted using the same methodology and procedure than described for plasma protein binding assay with the following modifications: 1) a final compound concentration of 1 μM was used, 2) naïve rat brains were homogenized in DPBS (1:3 composition of brain: DPBS, w/w) using a Mini-Bead Beater™ machine in order to obtain […]
The diluted fraction unbound (f u2) in brain was calculated as (analyte to IS MS peak area ratio from Trans-buffer side) / (analyte to IS MS peak area ratio from Cis-brain homogenate side). Undiluted fraction unbound for the brain was calculated using the following equation: […]
Mean values for each species were calculated from 3 replicates. […]

[4] = Binding in plasma from human (equilibrium dialysis); type: in vitro ADME; conditions: for fraction unbound at 6 h, 5 µM: human, plasma, read-out: human fu,plasma
Experimental: as §14, §15

[5] = Intrinsic clearance in rat liver microsomes; type: in vitro ADME; conditions: pH 7.4; rat liver microsomes
Experimental: as §1, §2, §3, §4, §5, §6, §7, §8, §9, §10, §11, §12, §13

[6] = biological target: T1, human M4 (hM4) (Homo sapiens, UniProt P08173); assay: Calcium mobilization assay, hM4/Gqi5-CHO cells, EC20 acetylcholine (PAM); type: cell-based; conditions: for fold increase in hM4 potency (EC50) vs comparator analogue: 14h vs 14c, 22g vs 14j, 22j vs 14k, 22k vs 14g, 22f vs 14e; for Emax / EC50 / hM4 pEC50: calcium mobilization, hM4/Gqi5-CHO cells, EC20 acetylcholine; for Emax: read-out: hM4 %ACh Max
T1 construct: expressed in transfected cells
T1 sequence (P08173 1-479): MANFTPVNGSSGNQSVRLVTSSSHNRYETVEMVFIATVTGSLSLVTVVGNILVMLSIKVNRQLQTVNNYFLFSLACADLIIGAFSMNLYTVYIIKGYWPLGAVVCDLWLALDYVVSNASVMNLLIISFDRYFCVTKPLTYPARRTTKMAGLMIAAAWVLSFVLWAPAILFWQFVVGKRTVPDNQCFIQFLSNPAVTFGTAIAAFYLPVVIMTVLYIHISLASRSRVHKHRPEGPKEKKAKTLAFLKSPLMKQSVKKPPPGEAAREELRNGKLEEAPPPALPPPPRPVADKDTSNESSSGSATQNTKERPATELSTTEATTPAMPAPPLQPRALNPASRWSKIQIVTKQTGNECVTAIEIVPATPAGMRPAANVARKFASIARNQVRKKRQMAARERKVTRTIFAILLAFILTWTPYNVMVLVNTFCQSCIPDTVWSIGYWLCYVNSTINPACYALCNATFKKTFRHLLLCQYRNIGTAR

[7] = Rat plasma-to-brain level (PBL) cassette, brain distribution; type: in vivo; conditions: 0.2 mg/kg, SD rat, 0.2 mg/kg IV; for Kp at 0.25 h / Kp uu at 0.25 h: male, Sprague-Dawley, rat, brain / plasma, iv
[8] = tested on: amphetamine-induced hyperlocomotion in rats; assay: Rat amphetamine-induced hyperlocomotion (AHL); type: in vivo; conditions: 10 mg/kg p.o. + amphetamine 0.75 mg/kg s.c.
Experimental: Rat Amphetamine-Induced Hyperlocomotion (AHL) Protocol
Male Harlan Sprague Dawley rats with a mean body weight of 240 g (range 221-264 g) were tested in SmartFrame Open Field locomotor activity test chambers to automatically record locomotor activity. All rats were habituated in locomotor activity enclosures for 30 min, followed by pretreatment by oral gavage for an additional 30 min with either vehicle or a dose of VU6016235 or the comparator M 4 PAM VU0467154. Next, rats were injected subcutaneously with vehicle or a dose of 0.75 mg/kg amphetamine and then monitored for an additional 60 min. Changes in locomotor activity were recorded for a total of 120 min. Locomotor data were expressed as the number of photobeam breaks/5 min intervals across the 120-min test session or as the total ambulation, calculated as sum of photobeam beam breaks from the time of amphetamine administration (60 min) until the end of the study (120 min). Time course data were analyzed by two-way ANOVA with main effects of treatment and time; changes in total ambulation were analyzed by one-way ANOVA followed by Dunnett’s post hoc test (GraphPad Prism 7 [GraphPad Software, San Diego, CA]). For all tests, α ≤ 0.05 was considered to represent statistical significance.
Finally, percent reversal data were calculated in Microsoft Excel using the following formula: Percent Reversal = 100 - {[(total ambulation in individual animal from t = 60 to t = 120) / (mean total ambulation […]
from t=60 to t=120 in the VAMP group)] * 100}. Mean percent reversal ± S.E.M. was calculated for each dose group using GraphPad Prism 7.
At the end of this behavioral study, each rat was euthanized, then decapitated, and the plasma and brain tissues were collected for the evaluation of exposure levels of VU6016235-05 or VU0467154-9A by pharmacokinetic analysis. […]

[9] = fraction unbound, equilibrium dialysis
[10] = read-out: hM4 pEC50 (converted)
[11] = total brain to total plasma ratio
[12] = unbound brain to unbound plasma ratio

SMILES	CLint scaled at 1 µM [1] [mL/min/kg]	fraction unbound at 6 h, 5 µM [2, 9]	rat fbrain [3]	fraction unbound at 6 h, 1 µM [3]	fraction unbound at 6 h, 5 µM [4, 9]	CLint scaled at 1 µM [5] [mL/min/kg]	fold increase in hM4 potency (EC50) vs comparator analogue [6] [fold]	Emax [6] [%]	EC50 ([6]; read-out: hM4 EC50) [nM]	EC50 [6, 10] [nM]	Kp at 0.25 h [7, 11]	Kp uu at 0.25 h [7, 12]	hM4 pEC50 [6]	fraction unbound at 6 h, 5 µM ([2]; in %)	fraction unbound at 6 h, 5 µM ([4]; in %)	Kp, brain:plasma ([7]; 0.25 h, total brain to total plasma ratio)	Kp,uu, brain:plasma ([7]; 0.25 h, unbound brain to unbound plasma ratio)	human fu,plasma ([4]; in %)	mean reversal of AHL [8] [%]
Cc1nc(C)c2c(n1)sc1c(N3CCC(F)(F)C3)nccc12 [22f]	148	0.043	0.015	0.012 to 0.033	0.01	1520	19	97	< 190	33.1	8.33	2.91	–	–	–	–	–	–	–
Cc1nnc2sc(C(=O)NCc3ccc(S(=O)(=O)C(F)(F)F)cc3)c(N)c2c1C [VU0467154, reference compound]	–	–	–	–	–	–	–	–	–	–	–	–	–	–	–	–	–	–	35.4 ± 4.2
Cc1nc(C)c2c(n1)sc1c(N3CCCC3)nccc12 [22k]	124	0.038	0.007	< 0.01	0.023	3060	4	77	< 190	–	18.6	3.43	7.14	–	–	–	–	–	–
Cc1nc(C)c2c(n1)sc1c(N3CCCCC3)nccc12 [22e]	134	0.019	0.004	< 0.01	0.007	3440	–	58	< 190	74.1	7.77	1.64	–	–	< 0.01	–	–	highly bound	–

Continued by falling EC50 ([6]; read-out: hM4 EC50), values first:

CLint scaled at 1 µM [1] [mL/min/kg]	fraction unbound at 6 h, 5 µM [2, 9]	rat fbrain [3]	fraction unbound at 6 h, 1 µM [3]	fraction unbound at 6 h, 5 µM [4, 9]	CLint scaled at 1 µM [5] [mL/min/kg]	fold increase in hM4 potency (EC50) vs comparator analogue [6] [fold]	Emax [6] [%]	EC50 ([6]; read-out: hM4 EC50) [nM]	EC50 [6, 10] [nM]	Kp at 0.25 h [7, 11]	Kp uu at 0.25 h [7, 12]	hM4 pEC50 [6]	fraction unbound at 6 h, 5 µM ([2]; in %)	fraction unbound at 6 h, 5 µM ([4]; in %)	Kp, brain:plasma ([7]; 0.25 h, total brain to total plasma ratio)	Kp,uu, brain:plasma ([7]; 0.25 h, unbound brain to unbound plasma ratio)	human fu,plasma ([4]; in %)	SMILES	mean reversal of AHL [8] [%]
50	0.014	0.009	< 0.01	0.009	386	7	94	170	166	1.69	1.01	–	–	–	–	–	–	COc1ccc(CNc2nccc3c2sc2nc(C)nc(C)c23)cc1F [22j]	–
177	0.048	0.012	0.01 to 0.05	0.013	1050	–	76	160	–	> 5	> 1	6.81	> 0.05	0.01 to 0.05	7.27	1.82	–	Cc1nc(C)c2c(n1)sc1c(N3CC4CC4C3)ncnc12 (centres unmarked) [14i]	–
